Test results taken from BigSolDB 2.1.

COc1cc([N+](=O)[O-])c(OC)cc1Cl
Details | solubility (mole fraction)
in 1-methoxy-2-propanol, 282.2 K | 0.00313
in 1-methoxy-2-propanol, 287.1 K | 0.00354
in 1-methoxy-2-propanol, 291.6 K | 0.00392
in 1-methoxy-2-propanol, 296 K | 0.00428
in 1-methoxy-2-propanol, 300.3 K | 0.00466
in 1-methoxy-2-propanol, 304.6 K | 0.00648
in 1-methoxy-2-propanol, 309 K | 0.00937
in 1-methoxy-2-propanol, 313.1 K | 0.0123
in 1-methoxy-2-propanol, 317.2 K | 0.0154
in 1-methoxy-2-propanol, 321.3 K | 0.0191
in 1-methoxy-2-propanol, 325.7 K | 0.0258
in 2-ethoxyethanol, 276.7 K | 0.00187
in 2-ethoxyethanol, 280.8 K | 0.00226
in 2-ethoxyethanol, 284.9 K | 0.00266
in 2-ethoxyethanol, 289.1 K | 0.00307
in 2-ethoxyethanol, 293.2 K | 0.00347
in 2-ethoxyethanol, 297.3 K | 0.00389
in 2-ethoxyethanol, 301.4 K | 0.00502
in 2-ethoxyethanol, 305.5 K | 0.00638
in 2-ethoxyethanol, 309.6 K | 0.00874
in 2-ethoxyethanol, 314 K | 0.0139
in 2-ethoxyethanol, 320.6 K | 0.0193
in 2-ethoxyethanol, 327.1 K | 0.0237
in 2-methoxyethanol, 283.2 K | 0.00622
in 2-methoxyethanol, 290.9 K | 0.00838
in 2-methoxyethanol, 295.3 K | 0.00953
in 2-methoxyethanol, 299.4 K | 0.0107
in 2-methoxyethanol, 303.1 K | 0.0119
in 2-methoxyethanol, 306.8 K | 0.0146
in 2-methoxyethanol, 313 K | 0.0177
in 2-methoxyethanol, 317.9 K | 0.0201
in 2-methoxyethanol, 321.7 K | 0.0226
in 2-methoxyethanol, 325.8 K | 0.0282
in 2-methoxyethanol, 329.8 K | 0.0335
in diethylene glycol, 282.1 K | 0.000239
in diethylene glycol, 286.5 K | 0.000275
in diethylene glycol, 290.8 K | 0.000321
in diethylene glycol, 296.1 K | 0.000364
in diethylene glycol, 301.6 K | 0.000402
in diethylene glycol, 306.2 K | 0.00048
in diethylene glycol, 310.7 K | 0.000573
in diethylene glycol, 315.2 K | 0.000717
in diethylene glycol, 319.5 K | 0.000876
in diethylene glycol, 323.6 K | 0.00109
in diethylene glycol, 327.7 K | 0.00136

COc1ccc(OC)c(N)c1
Details | solubility (mole fraction)
in 1-methoxy-2-propanol, 276.6 K | 0.0204
in 1-methoxy-2-propanol, 279.7 K | 0.0255
in 1-methoxy-2-propanol, 282.8 K | 0.0306
in 1-methoxy-2-propanol, 285.9 K | 0.0382
in 1-methoxy-2-propanol, 289 K | 0.0512
in 1-methoxy-2-propanol, 292.1 K | 0.0675
in 1-methoxy-2-propanol, 295.2 K | 0.0867
in 1-methoxy-2-propanol, 298.3 K | 0.11
in 1-methoxy-2-propanol, 301.6 K | 0.14
in 1-methoxy-2-propanol, 305.1 K | 0.174
in 1-methoxy-2-propanol, 310.4 K | 0.211
in 1-methoxy-2-propanol, 314.7 K | 0.239
in 1-methoxy-2-propanol, 318.8 K | 0.281
in 1-methoxy-2-propanol, 322.9 K | 0.323
in 2-ethoxyethanol, 276.7 K | 0.0186
in 2-ethoxyethanol, 279.8 K | 0.0238
in 2-ethoxyethanol, 282.9 K | 0.029
in 2-ethoxyethanol, 286 K | 0.0369
in 2-ethoxyethanol, 289.1 K | 0.0481
in 2-ethoxyethanol, 292.2 K | 0.0635
in 2-ethoxyethanol, 295.3 K | 0.0834
in 2-ethoxyethanol, 298.4 K | 0.106
in 2-ethoxyethanol, 301.6 K | 0.135
in 2-ethoxyethanol, 304.7 K | 0.165
in 2-ethoxyethanol, 308.9 K | 0.199
in 2-ethoxyethanol, 313 K | 0.231
in 2-ethoxyethanol, 317.1 K | 0.262
in 2-ethoxyethanol, 321.4 K | 0.311
in 2-ethoxyethanol, 325.5 K | 0.371
in 2-methoxyethanol, 276.4 K | 0.0331
in 2-methoxyethanol, 280.5 K | 0.046
in 2-methoxyethanol, 284.6 K | 0.0617
in 2-methoxyethanol, 288.7 K | 0.0819
in 2-methoxyethanol, 292.8 K | 0.102
in 2-methoxyethanol, 296.9 K | 0.123
in 2-methoxyethanol, 301 K | 0.15
in 2-methoxyethanol, 305.1 K | 0.185
in 2-methoxyethanol, 309.2 K | 0.217
in 2-methoxyethanol, 313.4 K | 0.254
in 2-methoxyethanol, 316.6 K | 0.292
in diethylene glycol, 276.7 K | 0.00015
in diethylene glycol, 280.9 K | 0.000379
in diethylene glycol, 285 K | 0.000611
in diethylene glycol, 289.1 K | 0.000885
in diethylene glycol, 293.2 K | 0.00119
in diethylene glycol, 297.3 K | 0.00165
in diethylene glycol, 301.4 K | 0.00325
in diethylene glycol, 303.5 K | 0.00532
in diethylene glycol, 305.6 K | 0.00751
in diethylene glycol, 307.7 K | 0.015
in diethylene glycol, 309.8 K | 0.0248
in diethylene glycol, 311.9 K | 0.0458
in diethylene glycol, 314 K | 0.0704
in diethylene glycol, 316.1 K | 0.104
in diethylene glycol, 318.2 K | 0.14
in diethylene glycol, 320.7 K | 0.177
in diethylene glycol, 323.7 K | 0.216

COc1cc(Cl)c(OC)cc1N
Details | solubility (mole fraction)
in 1-methoxy-2-propanol, 277.4 K | 0.0208
in 1-methoxy-2-propanol, 281.6 K | 0.0267
in 1-methoxy-2-propanol, 289.4 K | 0.0327
in 1-methoxy-2-propanol, 294.3 K | 0.0369
in 1-methoxy-2-propanol, 298.5 K | 0.045
in 1-methoxy-2-propanol, 302.6 K | 0.0536
in 1-methoxy-2-propanol, 307.6 K | 0.0649
in 1-methoxy-2-propanol, 312.6 K | 0.0772
in 1-methoxy-2-propanol, 316.8 K | 0.089
in 1-methoxy-2-propanol, 320.9 K | 0.101
in 1-methoxy-2-propanol, 326.3 K | 0.125
in 2-ethoxyethanol, 278.6 K | 0.0282
in 2-ethoxyethanol, 283.5 K | 0.0322
in 2-ethoxyethanol, 287.6 K | 0.0361
in 2-ethoxyethanol, 291.7 K | 0.04
in 2-ethoxyethanol, 295.8 K | 0.0453
in 2-ethoxyethanol, 300.3 K | 0.0559
in 2-ethoxyethanol, 306.7 K | 0.0672
in 2-ethoxyethanol, 310.9 K | 0.0785
in 2-ethoxyethanol, 315 K | 0.0894
in 2-ethoxyethanol, 319.7 K | 0.1
in 2-ethoxyethanol, 323.9 K | 0.117
in 2-ethoxyethanol, 328 K | 0.138
in 2-methoxyethanol, 277.2 K | 0.0282
in 2-methoxyethanol, 281.1 K | 0.034
in 2-methoxyethanol, 285.5 K | 0.0427
in 2-methoxyethanol, 291.2 K | 0.0497
in 2-methoxyethanol, 295.3 K | 0.0549
in 2-methoxyethanol, 299.4 K | 0.06
in 2-methoxyethanol, 303.6 K | 0.0665
in 2-methoxyethanol, 307.7 K | 0.0768
in 2-methoxyethanol, 312.1 K | 0.0884
in 2-methoxyethanol, 315.7 K | 0.0986
in 2-methoxyethanol, 319.6 K | 0.112
in 2-methoxyethanol, 324.2 K | 0.129
in diethylene glycol, 276.7 K | 0.0167
in diethylene glycol, 280.9 K | 0.0188
in diethylene glycol, 285.1 K | 0.021
in diethylene glycol, 289.4 K | 0.0233
in diethylene glycol, 295.5 K | 0.0279
in diethylene glycol, 299.6 K | 0.0312
in diethylene glycol, 303.8 K | 0.0346
in diethylene glycol, 307.9 K | 0.0396
in diethylene glycol, 312 K | 0.0447
in diethylene glycol, 316.5 K | 0.0512
in diethylene glycol, 320.8 K | 0.0584
in diethylene glycol, 325.3 K | 0.0675
